Measurements: patent US20230279025A1, “KRAS G12D INHIBITORS” (Mirati Therapeutics, Inc., priority 2020, published 2023)
Where a name gives a salt, the structure may show the parent alone.

Legend:
[1] = biological target: T1, KRas G12D (Homo sapiens (Human), UniProt P01116, G12D); assay: KRas G12D Binding Assay (TR-FRET displacement of Cy5 labelled tracer); settings: GDP-loaded KRAS G12D (amino acids 1:169), 60 minute incubation at 22° C.
Description: After a 60 minute incubation at 22° C., the reaction was measured using a PerkinElmer EnVision multimode plate reader via TR-FRET dual wavelength detection, and the percent of control (POC) calculated using a ratiometric emission factor. […] The POC values were fit to a 4-parameter logistic curve and the IC50 value was determined as the concentration where the curve crosses 50 POC.
ND stands for “not determined.”
Target sequence in this assay (P01116 other isoform, or with tags, fused parts or gaps G12D): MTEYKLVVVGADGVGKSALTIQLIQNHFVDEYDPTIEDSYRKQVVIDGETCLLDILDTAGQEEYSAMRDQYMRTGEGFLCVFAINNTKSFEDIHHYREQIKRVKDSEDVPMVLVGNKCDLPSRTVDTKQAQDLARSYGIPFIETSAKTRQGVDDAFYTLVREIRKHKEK

[2] = biological target: T1, KRas G12D; assay: KRas G12D Surface Plasmon Resonance (SPR) Binding Assay; settings: Biacore T200, immobilized biotinylated KRAS protein, 1:1 binding model
Description: Briefly, 1L of 1.05X HBS-Mg buffer (262.5 mM Bioultra Hepes, pH 7.5, 157.5 mM NaCl, 105 mM MgCl2, 0.525 mM TCEP, 0.0305% Brij-35) was prepared and filter sterilized using a 0.22 μm bottle top filter. Approximately 50 mL of 1.05X HBS-Mg buffer was removed and saved for future dilutions. A 50 mL aliquot of DMSO (Sigma Aldrich DMSO Lot. #SHBK2079) was added and continued to stir for 10 minutes, creating the final 1.0X HBS-Mg buffer (250 mM Bioultra Hepes pH 7.5, 150 mM NaCl, 100 mM MgCl2, 0.5 mM TCEP, 0.03% Brij-35).
Biacore T200 instrument was primed using 1.0X HBS-Mg buffer before docking a GE Streptavidin (SA) chip and then primed two additional times prior to beginning the immobilization step. All immobilized protein mixtures were created using 3-5 mg/mL Biotinylated Avidin-tagged KRAS protein using the following immobilization settings: SA chip type, 1 flow cells per cycle, 720 second contact time, and 5 ul/min flow rate. Normalization of the detector was also performed during the immobilization step using the GE BiaNormalize solution.
All compounds were diluted to 10 mM in 100% DMSO prior to being diluted 20X in 1.05X buffer. Another 10X dilution was created using 1.0X buffer prior to performing a series of 3X dilutions to create a compound concentration curve using the following assay settings: 20C analysis temperature, General Settings=10 Hz data collection rate and multi-detection; Assay Steps=all set to LMW kinetics; Cycle Types=LMW kinetics (60 s contact time, 120 s dissociation time, 100 ul/min flow rate, extra wash after injection with 50% DMSO, flow path 1,2,3,4); Flow path detection=2-1, 4-3). Data evaluation was performed using the Biacore T200 Evaluation software and data fit to 1:1 binding model. ND=not determined.
Target sequence in this assay (P01116-2 other isoform, or with tags, fused parts or gaps G12D): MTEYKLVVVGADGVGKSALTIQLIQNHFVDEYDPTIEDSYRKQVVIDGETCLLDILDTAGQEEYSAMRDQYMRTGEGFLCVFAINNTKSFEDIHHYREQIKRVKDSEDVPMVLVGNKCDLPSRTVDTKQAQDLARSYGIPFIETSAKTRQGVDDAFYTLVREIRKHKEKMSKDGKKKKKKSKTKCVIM

| Structure (SMILES) | IC50 [1] | Kd [2] |
| --- | --- | --- |
| Fc1c(-c2cccc3cccc(Cl)c23)ncc2c(N3CC4CCC(C3)N4)nc(OC[C@@]34CCCN3C[C@H](F)C4)nc12 (stereo in doubt) [Example 134, 4-((1R,5S)-3,8-diazabicyclo[3.2.1]octan-3-yl)-7-(8-chloronaphthalen-1-yl)-8-fluoro-2-((2-fluorotetrahydro-1H-pyrrolizin-7a(5H)-yl)methoxy)pyrido[4,3-d]pyrimidine] | 0.0037 µM | 0.0069 µM |
| CN1CCC[C@H]1COc1nc(N2C[C@H]3CC[C@@H](C2)N3)c2cnc(-c3cc(O)cc4ccccc34)cc2n1 [Example 1, 4-(4-((1R,5S)-3,8-diazabicyclo[3.2.1]octan-3-yl)-2-(((S)-1-methylpyrrolidin-2-yl)methoxy)pyrido[4,3-d]pyrimidin-7-yl)naphthalen-2-ol tris-hydrochloride salt] | 0.125 µM | 0.0977 µM |
| Cn1ccnc1CCOc1nc(N2C[C@H]3CC[C@@H](C2)N3)c2cnc(-c3cc(O)cc4ccccc34)c(F)c2n1 [Example 3, 4-(4-((1R,5S)-3,8-diazabicyclo[3.2.1]octan-3-yl)-8-fluoro-2-(2-(1-methyl-1H-imidazol-2-yl)ethoxy)pyrido[4,3-d]pyrimidin-7-yl)naphthalen-2-ol] | 0.0095 µM | 0.0083 µM |
| Oc1cc(-c2ncc3c(N4C[C@H]5CC[C@@H](C4)N5)nc(OCCc4ccccn4)nc3c2F)c2ccccc2c1 [Example 4, 4-(4-((1R,5S)-3,8-diazabicyclo[3.2.1]octan-3-yl)-8-fluoro-2-(2-(pyridin-2-yl)ethoxy)pyrido[4,3-d]pyrimidin-7-yl)naphthalen-2-ol] | 0.496 µM | 0.156 µM |
| Cn1nccc1COc1nc(N2C[C@H]3CC[C@@H](C2)N3)c2cnc(-c3cc(O)cc4ccccc34)c(F)c2n1 [Example 5, 4-(4-((1R,5S)-3,8-diazabicyclo[3.2.1]octan-3-yl)-8-fluoro-2-((1-methyl-1H-pyrazol-5-yl)methoxy)pyrido[4,3-d]pyrimidin-7-yl)naphthalen-2-ol] | 0.723 µM | 0.295 µM |
| Cc1cccnc1CCOc1nc(N2C[C@H]3CC[C@@H](C2)N3)c2cnc(-c3cc(O)cc4ccccc34)c(F)c2n1 [Example 6, 4-(4-((1R,5S)-3,8-diazabicyclo[3.2.1]octan-3-yl)-8-fluoro-2-(2-(3-methylpyridin-2-yl)ethoxy)pyrido[4,3-d]pyrimidin-7-yl)naphthalen-2-ol] | 0.434 µM | 0.442 µM |
| Oc1cc(-c2ncc3c(N4C[C@H]5CC[C@@H](C4)N5)nc(OCCc4ncccn4)nc3c2F)c2ccccc2c1 [Example 7, 4-(4-((1R,5S)-3,8-diazabicyclo[3.2.1]octan-3-yl)-8-fluoro-2-(2-(pyrimidin-2-yl)ethoxy)pyrido[4,3-d]pyrimidin-7-yl)naphthalen-2-ol] | 1.87 µM | 0.464 µM |
| Cn1ccc(COc2nc(N3C[C@H]4CC[C@@H](C3)N4)c3cnc(-c4cc(O)cc5ccccc45)c(F)c3n2)n1 [Example 8, 4-(4-((1R,5S)-3,8-diazabicyclo[3.2.1]octan-3-yl)-8-fluoro-2-((1-methyl-1H-pyrazol-3-yl)methoxy)pyrido[4,3-d]pyrimidin-7-yl)naphthalen-2-ol] | 1.52 µM | 2.14 µM |
| Cn1cnc(COc2nc(N3C[C@H]4CC[C@@H](C3)N4)c3cnc(-c4cc(O)cc5ccccc45)c(F)c3n2)c1 [Example 9, 4-(4-((1R,5S)-3,8-diazabicyclo[3.2.1]octan-3-yl)-8-fluoro-2-((1-methyl-1H-imidazol-4-yl)methoxy)pyrido[4,3-d]pyrimidin-7-yl)naphthalen-2-ol] | 0.821 µM | 0.259 µM |
| CN1CCC[C@H]1CCOc1nc(N2C[C@H]3CC[C@@H](C2)N3)c2cnc(-c3cc(O)cc4ccccc34)c(F)c2n1 [Example 10, 4-(4-((1R,5S)-3,8-diazabicyclo[3.2.1]octan-3-yl)-8-fluoro-2-(2-((S)-1-methylpyrrolidin-2-yl)ethoxy)pyrido[4,3-d]pyrimidin-7-yl)naphthalen-2-ol] |  | 0.0338 µM |
| CCN1CCC[C@H]1COc1nc(N2C[C@H]3CC[C@@H](C2)N3)c2cnc(-c3cc(O)cc4ccccc34)c(F)c2n1 [Example 11, 4-(4-((1R,5S)-3,8-diazabicyclo[3.2.1]octan-3-yl)-2-(((S)-1-ethylpyrrolidin-2-yl)methoxy)-8-fluoropyrido[4,3-d]pyrimidin-7-yl)naphthalen-2-ol] |  | 0.0049 µM |
| Oc1cc(-c2ncc3c(N4C[C@H]5CC[C@@H](C4)N5)nc(OC[C@@H]4CCCN4Cc4ccccc4)nc3c2F)c2ccccc2c1 [Example 12, 4-(2-(((S)-1-benzylpyrrolidin-2-yl)methoxy)-4-((1R,5S)-3,8-diazabicyclo[3.2.1]octan-3-yl)-8-fluoropyrido[4,3-d]pyrimidin-7-yl)naphthalen-2-ol] |  | 0.011 µM |
| CN(C)C(=O)CCOc1nc(N2C[C@H]3CC[C@@H](C2)N3)c2cnc(-c3cc(O)cc4ccccc34)c(F)c2n1 [Example 13, 3-((4-((1R,5S)-3,8-diazabicyclo[3.2.1]octan-3-yl)-8-fluoro-7-(3-hydroxynaphthalen-1-yl)pyrido[4,3-d]pyrimidin-2-yl)oxy)-N,N-dimethylpropanamide] |  | 0.511 µM |
| CN1CCC[C@H]1COc1nc(N2C[C@H]3CC[C@@H](C2)N3)c2cnc(-c3cc(O)c(Br)c4ccccc34)c(F)c2n1 [Example 14, 4-(4-((1R,5S)-3,8-diazabicyclo[3.2.1]octan-3-yl)-8-fluoro-2-(((S)-1-methylpyrrolidin-2-yl)methoxy)pyrido[4,3-d]pyrimidin-7-yl)-1-bromonaphthalen-2-ol] | 0.0739 µM | 0.0051 µM |
| Cc1cccc2cccc(-c3ncc4c(N5C[C@H]6CC[C@@H](C5)N6)nc(OC[C@@H]5CCCN5C)nc4c3F)c12 [Example 15, 4-((1R,5S)-3,8-diazabicyclo[3.2.1]octan-3-yl)-8-fluoro-7-(8-methylnaphthalen-1-yl)-2-(((S)-1-methylpyrrolidin-2-yl)methoxy)pyrido[4,3-d]pyrimidine] | 0.26 µM | 0.208 µM |
| CN1CCC[C@H]1COc1nc(N2C[C@H]3CC[C@@H](C2)N3)c2cnc(-c3cccc4c3CCC4)c(F)c2n1 [Example 23, 4-((1R,5S)-3,8-diazabicyclo[3.2.1]octan-3-yl)-7-(2,3-dihydro-1H-inden-4-yl)-8-fluoro-2-(((S)-1-methylpyrrolidin-2-yl)methoxy)pyrido[4,3-d]pyrimidine] |  | 0.807 µM |
| CC(Oc1nc(N2C[C@H]3CC[C@@H](C2)N3)c2cnc(-c3cc(O)cc4ccccc34)c(F)c2n1)C1CCCN1C (stereo partly drawn) [Example 27, 4-(4-((1R,5S)-3,8-diazabicyclo[3.2.1]octan-3-yl)-8-fluoro-2-(1-(1-methylpyrrolidin-2-yl)ethoxy)pyrido[4,3-d]pyrimidin-7-yl)naphthalen-2-ol] |  | 0.0259 µM |
| CN1C[C@H](C(F)(F)F)C[C@H]1COc1nc(N2C[C@H]3CC[C@@H](C2)N3)c2cnc(-c3cc(O)cc4ccccc34)c(F)c2n1 [Example 28, 4-(4-((1R,5S)-3,8-diazabicyclo[3.2.1]octan-3-yl)-8-fluoro-2-(((2S,4R)-1-methyl-4-(trifluoromethyl)pyrrolidin-2-yl)methoxy)pyrido[4,3-d]pyrimidin-7-yl)naphthalen-2-ol] |  | 0.0587 µM |
| COc1cccnc1CCOc1nc(N2C[C@H]3CC[C@@H](C2)N3)c2cnc(-c3cc(O)cc4ccccc34)c(F)c2n1 [Example 140, 4-(4-((1R,5S)-3,8-diazabicyclo[3.2.1]octan-3-yl)-8-fluoro-2-(2-(3-methoxypyridin-2-yl)ethoxy)pyrido[4,3-d]pyrimidin-7-yl)naphthalen-2-ol] |  | 5.59 µM |
| CN1CCC[C@H]1COc1nc(N2CC3CCC(C=O)(C2)N3)c2cnc(-c3cc(O)cc4ccccc34)c(F)c2n1 (stereo partly drawn) [Example 214, 3-(8-fluoro-7-(3-hydroxynaphthalen-1-yl)-2-(((S)-1-methylpyrrolidin-2-yl)methoxy)pyrido[4,3-d]pyrimidin-4-yl)-3,8-diazabicyclo[3.2.1]octane-1-carbaldehyde] |  | 0.284 µM |
| CN1CCC[C@H]1COc1nc(N2CC3CCC(CO)(C2)N3)c2cnc(-c3cc(O)cc4ccccc34)c(F)c2n1 (stereo partly drawn) [Example 215, 4-(8-fluoro-4-(1-(hydroxymethyl)-3,8-diazabicyclo[3.2.1]octan-3-yl)-2-(((S)-1-methylpyrrolidin-2-yl)methoxy)pyrido[4,3-d]pyrimidin-7-yl)naphthalen-2-ol bis(2,2,2-trifluoroacetate)] |  | 0.0704 µM |
| Oc1cc(-c2ncc3c(N4C[C@H]5CC[C@@H](C4)N5)nc(OCc4ccccc4F)nc3c2F)c2ccccc2c1 [Example 217, 4-(4-((1R,5S)-3,8-diazabicyclo[3.2.1]octan-3-yl)-8-fluoro-2-((2-fluorobenzyl)oxy)pyrido[4,3-d]pyrimidin-7-yl)naphthalen-2-ol] |  | 2.98 µM |
